The target of experiment [1] is T1, FABP4 (adipocyte, A-FABP) (Homo sapiens, UniProt P15090). As to the kind of experiment: fluorescence polarisation saturation binding. A general note: Polarisation of emitted light reports the rotation of a fluorescent probe.
For experiment [2], the target named is T2, FABP3 (heart, H-FABP) (Homo sapiens, UniProt P05413). As to the kind of experiment: fluorescence polarisation saturation binding.
Experiment [3] addresses T3, FABP5 (brain, B-FABP or epidermal, E-FABP) (Homo sapiens, UniProt Q01469). Kind of experiment: fluorescence polarisation saturation binding.
The target of experiment [4] is T4, FABP1 (liver, L-FABP) (Homo sapiens, UniProt P07148).
T4 sequence (P07148 1-127): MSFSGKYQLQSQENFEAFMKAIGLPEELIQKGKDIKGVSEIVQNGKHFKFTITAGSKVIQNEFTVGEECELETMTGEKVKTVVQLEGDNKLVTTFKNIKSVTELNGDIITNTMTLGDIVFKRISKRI
Kind of experiment: fluorescence polarisation saturation binding.

Experiment [5] addresses T5, FABP2 (intestine, I-FABP) (Homo sapiens, UniProt P12104).
T5 sequence (P12104 2-132): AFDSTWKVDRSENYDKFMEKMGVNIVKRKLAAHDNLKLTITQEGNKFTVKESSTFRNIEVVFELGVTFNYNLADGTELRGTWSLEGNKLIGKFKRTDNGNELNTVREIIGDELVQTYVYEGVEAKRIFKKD
As to the kind of experiment: fluorescence polarisation saturation binding.

The target of experiment [6] is T2, FABP3 (heart, H-FABP). Kind of experiment: fluorescence polarisation competition vs BODIPY C4,C9. The class given is binding.
Experiment [7] has as its target T4, FABP1 (liver, L-FABP). Described as above. The class given is binding.
In experiment [8] the target is T3, FABP5 (brain, B-FABP or epidermal, E-FABP). Described as above. It counts as binding.
Experiment [9] deals with T6, GR (α sub-type) (Homo sapiens, UniProt P04150).
T6 sequence (P04150 1-777): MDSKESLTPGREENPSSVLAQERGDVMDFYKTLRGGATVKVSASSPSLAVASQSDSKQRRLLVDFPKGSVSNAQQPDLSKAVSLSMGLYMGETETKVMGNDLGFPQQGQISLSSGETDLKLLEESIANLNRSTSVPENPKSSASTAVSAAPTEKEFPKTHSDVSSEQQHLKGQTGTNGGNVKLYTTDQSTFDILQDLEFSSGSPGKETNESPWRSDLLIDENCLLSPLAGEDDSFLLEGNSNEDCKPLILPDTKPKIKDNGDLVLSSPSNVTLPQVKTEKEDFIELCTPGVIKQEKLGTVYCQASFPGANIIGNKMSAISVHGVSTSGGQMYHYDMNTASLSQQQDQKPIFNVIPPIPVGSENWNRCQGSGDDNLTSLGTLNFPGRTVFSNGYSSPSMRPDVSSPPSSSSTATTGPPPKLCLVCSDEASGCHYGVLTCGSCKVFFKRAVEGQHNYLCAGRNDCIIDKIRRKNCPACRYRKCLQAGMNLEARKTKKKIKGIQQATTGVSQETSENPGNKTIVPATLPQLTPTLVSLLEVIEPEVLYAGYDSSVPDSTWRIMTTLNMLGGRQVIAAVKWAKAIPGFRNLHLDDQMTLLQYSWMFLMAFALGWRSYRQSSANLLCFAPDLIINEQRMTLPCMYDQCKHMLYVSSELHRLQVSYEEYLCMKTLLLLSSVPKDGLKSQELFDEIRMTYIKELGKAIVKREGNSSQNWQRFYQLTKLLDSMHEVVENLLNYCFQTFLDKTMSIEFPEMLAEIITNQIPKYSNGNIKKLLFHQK
As to the kind of experiment: GRE-SEAP reporter gene assay, COS-7. It counts as cell-based. The note with it: 24 h agonist treatment; nominal EC80 concentration from reporter curves. (In a reporter assay the amount or activity of a reporter protein is the signal.)

The target in experiment [10] is T5, FABP2 (intestine, I-FABP). Kind of experiment: fluorescence polarisation competition vs BODIPY C4,C9. The class given is binding.
For experiment [11], the target named is T1, FABP4 (adipocyte, A-FABP). The experiment is described as above. It counts as binding.

Broadly, the Kd is the equilibrium constant for the complex coming apart. By Ki is commonly meant the dissociation constant of the complex between target and ligand, obtained from inhibition or displacement.

T3 sequence (Q01469 2-135): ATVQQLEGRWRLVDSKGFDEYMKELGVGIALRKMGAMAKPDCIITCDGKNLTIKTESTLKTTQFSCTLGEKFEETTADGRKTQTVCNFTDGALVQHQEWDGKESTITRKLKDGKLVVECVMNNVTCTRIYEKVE
T2 sequence (P05413 whole entry): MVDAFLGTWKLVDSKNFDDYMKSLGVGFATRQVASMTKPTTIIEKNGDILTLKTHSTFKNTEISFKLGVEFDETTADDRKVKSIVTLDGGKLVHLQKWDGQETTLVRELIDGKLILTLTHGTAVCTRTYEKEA
T1 sequence (P15090 whole entry): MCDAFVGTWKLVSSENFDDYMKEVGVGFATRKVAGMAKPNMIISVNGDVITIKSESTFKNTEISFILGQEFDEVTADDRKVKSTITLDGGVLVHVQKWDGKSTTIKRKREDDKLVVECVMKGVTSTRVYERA

Take `CCCCc1ccc2n1[B-](F)(F)[N+]1=C(CCCCCCCCC(=O)O)C=CC1=C2` [BODIPY 500/510 C4, C9]: the dissociation constant Kd in [1] was 0.42 µM; in experiment [2] it was 0.02 µM; in experiment [3], 0.16 µM; in experiment [4], 0.09 µM; in [5] it was 4.1 µM.
Consider `CCCC1O[C@@H]2C[C@H]3[C@@H]4CCC5=CC(=O)C=C[C@]5(C)[C@H]4[C@@H](O)C[C@]3(C)[C@]2(C(=O)CO)O1` (stereo partly drawn) [Budesonide], for which the inhibitory constant (Ki) was 0.0575 µM in experiment [6], 85.1 µM in [7] and 19.1 µM in [8]. Further, the EC80 in experiment [9] was ~ 10 μM.
On to `C[C@]12CCC(=O)C=C1CC[C@@H]1[C@@H]2C(=O)C[C@@]2(C)[C@H]1CC[C@]2(O)C(=O)CO` [Cortisone], for which the inhibition constant Ki in experiment [6] was 107 µM; in [7], 302 µM; in [10], 16.6 µM; in [8], 129 µM; in experiment [11], 977 µM.
With `C[C@@H]1C[C@H]2[C@@H]3CCC4=CC(=O)C=C[C@]4(C)[C@@]3(F)[C@@H](O)C[C@]2(C)[C@@]1(O)C(=O)CO` [Dexamethasone], the Ki in [6] is 5.62 µM; in [7] it was 27.5 µM; in experiment [11], 74.1 µM. For the same compound, in experiment [9], the EC80 is ~ 10 μM.
With `C[C@]12CCC(=O)C=C1CC[C@@H]1[C@@H]2[C@@H](O)C[C@@]2(C)[C@H]1CC[C@]2(O)C(=O)CO` [Hydrocortisone], the inhibition constant (Ki) in [6] is 7.76 µM; in [7], 38.9 µM; in experiment [8], 21.9 µM; in experiment [11] it was 120 µM. Further, in experiment [9], the EC80 is recorded as ~ 1 mM.
For the compound `C[C@H]1C[C@@H]2[C@H]([C@@H](O)C[C@@]3(C)[C@H]2CC[C@]3(O)C(=O)CO)[C@@]2(C)C=CC(=O)C=C12` [Methylprednisolone], the inhibition constant (Ki) in experiment [6] was 117 µM; in [7], 79.4 µM; in [10], 3.39 µM; in experiment [11], 2000 µM.
As for `C[C@]12C=CC(=O)C=C1CC[C@@H]1[C@@H]2[C@@H](O)C[C@@]2(C)[C@H]1CC[C@]2(O)C(=O)CO` [Prednisolone], the Ki was 70.8 µM in experiment [6], 47.9 µM in [7], 11 µM in experiment [10] and 1150 µM in [11]. Besides, the EC80 in [9] is reported as ~ 100 μM.
In the case of `C[C@]12C=CC(=O)C=C1CC[C@@H]1[C@@H]2C(=O)C[C@@]2(C)[C@H]1CC[C@]2(O)C(=O)CO` [Prednisone], the Ki in experiment [6] was 7.59 µM; in experiment [7], 288 µM; in experiment [8] it was 9.33 µM; in [11], 35.5 µM.
For the compound `C[C@H]1C[C@H]2[C@@H]3CCC4=CC(=O)C=C[C@]4(C)[C@@]3(F)[C@@H](O)C[C@]2(C)[C@@]1(O)C(=O)CO` [β-methasone], the Ki was 91.2 µM in [7] and 72.4 µM in [10]. Besides, the EC80 in experiment [9] is reported as ~ 10 μM.
